Reference: US20120214811A1, “RAF INHIBITOR COMPOUNDS AND METHODS OF USE THEREOF” (priority 2009, published 2012)

Target: T1, V600E full-length B-Raf (Homo sapiens, UniProt P15056, V600E)
T1 construct: 1 μM FSBA-MEK and 20 nM V600E full-length B-Raf; made in house; host or cells: Sf9 insect cells (baculovirus)
Assay: B-Raf IC50 assay (incorporation of radio labeled phosphate from [γ-33P]ATP into FSBA-modified wild-type MEK)
Format: biochemical
Conditions: Example A assay; 4 μM ATP, 20 nM V600E full-length B-Raf, 60-minute incubation at 22° C.; read-out: BRAF V600E IC50
Excerpt: Determining the activity of Raf in the sample is possible by a number of direct and indirect detection methods (US 2004/0082014). Activity of human recombinant B-Raf protein may be assessed in vitro by assay of the incorporation of radio labeled phosphate to recombinant MAP kinase (MEK), a known physiologic substrate of B-Raf, according to US 2004/0127496 and WO 03/022840. The activity/inhibition of V600E full-length B-Raf was estimated by measuring the incorporation of radio labeled phosphate from [γ-^33]ATP into FSBA-modified wild-type MEK (see Example A).
Activity of human recombinant B-Raf protein may be assessed in vitro by assay of the incorporation of radio labeled phosphate to recombinant MAP kinase (MEK), a known physiologic substrate of B-Raf, according to US 2004/0127496 and WO 03/022840. Catalytically active human recombinant B-Raf protein is obtained by purification from sf9 insect cells infected with a human B-Raf recombinant baculovirus expression vector.
The activity/inhibition of V600E full-length B-Raf was estimated by measuring the incorporation of radio labeled phosphate from [γ-^33P]ATP into FSBA-modified wild-type MEK. The 30-μL assay mixtures contained 25 mM Na Pipes, pH 7.2, 100 mM KCl, 10 mM MgCl2, 5 mM β-glycerophosphate, 100 μM Na Vanadate, 4 μM ATP, 500 nCi [γ-^33P]ATP, 1 μM FSBA-MEK and 20 nM V600E full-length B-Raf. Incubations were carried out at 22° C. in a Costar 3365 plate (Corning). Prior to the assay, the B-Raf and FSBA-MEK were preincubated together in assay buffer at 1.5× (20 μL of 30 nM and 1.5 μM, respectively) for 15 minutes, and the assay was initiated by the addition of 10 μL of 10 μM ATP. Following the 60-minute incubation, the assay mixtures were quenched by the addition of 100 μL of 25% TCA, the plate was mixed on a rotary shaker for 1 minute, and the product was captured on a Perkin-Elmer GF/B filter plate using a Tomtec Mach III Harvester. After sealing the bottom of the plate, 35 μL of Bio-Safe II (Research Products International) scintillation cocktail were added to each well and the plate was top-sealed and counted in a Topcount NXT (Packard).

T1 sequence (P15056 whole entry V600E): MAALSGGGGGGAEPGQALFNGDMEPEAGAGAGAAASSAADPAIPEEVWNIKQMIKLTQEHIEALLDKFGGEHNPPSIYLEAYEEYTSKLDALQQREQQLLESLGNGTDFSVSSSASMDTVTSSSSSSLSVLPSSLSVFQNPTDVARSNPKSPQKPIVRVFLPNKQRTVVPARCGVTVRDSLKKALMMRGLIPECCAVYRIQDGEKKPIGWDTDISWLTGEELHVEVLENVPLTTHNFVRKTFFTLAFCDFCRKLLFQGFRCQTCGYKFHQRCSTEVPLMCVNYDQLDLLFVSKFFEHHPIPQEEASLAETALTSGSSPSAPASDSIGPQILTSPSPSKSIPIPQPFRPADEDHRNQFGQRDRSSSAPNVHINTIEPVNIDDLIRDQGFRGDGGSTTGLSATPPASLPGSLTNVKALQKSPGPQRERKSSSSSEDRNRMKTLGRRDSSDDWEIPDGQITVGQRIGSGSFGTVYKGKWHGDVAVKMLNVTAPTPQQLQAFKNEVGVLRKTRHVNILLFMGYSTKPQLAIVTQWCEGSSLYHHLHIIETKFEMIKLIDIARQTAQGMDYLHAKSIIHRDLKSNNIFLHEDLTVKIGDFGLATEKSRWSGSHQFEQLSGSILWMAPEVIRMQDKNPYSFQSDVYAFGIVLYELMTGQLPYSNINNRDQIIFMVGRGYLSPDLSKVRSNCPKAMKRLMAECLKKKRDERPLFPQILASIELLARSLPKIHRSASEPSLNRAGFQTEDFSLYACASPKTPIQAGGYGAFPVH

Row | SMILES | IC50 [nM]
1 | CCCS(=O)(=O)Nc1ccc(F)c(NC(=O)Nc2cc(N)ncn2)c1F [Example 2, N-(3-(3-(6-aminopyrimidin-4-yl)ureido)-2,4-difluorophenyl)propane-1-sulfonamide] | 142
2 | CCCS(=O)(=O)Nc1ccc(F)c(NC(=O)Nc2cc(NC(C)C)ncn2)c1F [Example 4, N-(2,4-difluoro-3-(3-(6-(isopropylamino)pyrimidin-4-yl)ureido)phenyl)propane-1-sulfonamide] | 165
3 | CCCS(=O)(=O)Nc1ccc(F)c(NC(=O)Nc2cc(NCCO)ncn2)c1F [Example 5, N-(2,4-difluoro-3-(3-(6-(2-hydroxyethylamino)pyrimidin-4-yl)ureido)phenyl)propane-1-sulfonamide] | 63.5
4 | CCCS(=O)(=O)Nc1ccc(F)c(NC(=O)Nc2cc(NCCN3CCOCC3)ncn2)c1F [Example 6, N-(2,4-difluoro-3-(3-(6-(2-morpholinoethylamino)pyrimidin-4-yl)ureido)phenyl)propane-1-sulfonamide] | 535
5 | CCCS(=O)(=O)Nc1ccc(F)c(NC(=O)Nc2ccncn2)c1F [Example 7, Propane-1-sulfonic acid [2,4-difluoro-3-(3-pyrimidin-4-yl-ureido)-phenyl]-amide] | 1390
6 | CCCS(=O)(=O)Nc1ccc(F)c(NC(=O)N(C)c2ccncn2)c1F [Example 11, Propane-1-sulfonic acid [2,4-difluoro-3-(3-methyl-3-pyrimidin-4-yl-ureido)-phenyl]-amide] | 1230
7 | CCCS(=O)(=O)Nc1ccc(F)c(NC(=O)N(C)c2cc(N)ncn2)c1F [Example 15, N-(3-(3-(6-aminopyrimidin-4-yl)-3-methylureido)-2,4-difluorophenyl)propane-1-sulfonamide] | 83.3
8 | CCCS(=O)(=O)Nc1ccc(F)c(NC(=O)N(C)c2cc(NCCO)ncn2)c1F [Example 16, N-(2,4-difluoro-3-(3-(6-(2-hydroxyethylamino)pyrimidin-4-yl)-3-methylureido)phenyl) propane-1-sulfonamide] | 121
9 | CCCS(=O)(=O)Nc1ccc(F)c(NC(=O)N(C)c2cc(NC)ncn2)c1F [Example 17, N-(2,4-difluoro-3-(3-methyl-3-(6-(methylamino)pyrimidin-4-yl)ureido)phenyl)propane-1-sulfonamide] | 84.6
10 | CCCS(=O)(=O)Nc1ccc(F)c(NC(=O)N(C)c2cc(NC3CCOC3)ncn2)c1F (stereo not shown) [Example 19, N-(2,4-difluoro-3-(3-methyl-3-(6-(tetrahydrofuran-3-ylamino)pyrimidin-4-yl)ureido)phenyl)propane-1-sulfonamide] | 283
11 | CCCS(=O)(=O)Nc1ccc(F)c(NC(=O)N(C)c2cc(NC(C)C)ncn2)c1F [Example 21, N-(2,4-difluoro-3-(3-(6-(isopropylamino)pyrimidin-4-yl)-3-methylureido)phenyl) propane-1-sulfonamide] | 132
12 | CCCS(=O)(=O)Nc1ccc(F)c(NC(=O)N(C)c2cc(NCCN3CCOCC3)ncn2)c1F [Example 22, N-(2,4-difluoro-3-(3-methyl-3-(6-(2 morpholinoethylamino)pyrimidin-4-yl)ureido)phenyl)propane-1-sulfonamide] | 616
13 | CCCS(=O)(=O)Nc1ccc(F)c(NC(=O)Nc2ncncn2)c1F [Example 24, N-(3-(3-1,3,5-Triazin-2-ylureido)-2,4-difluorophenyl)propane-1-sulfonamide] | 122
14 | CCCS(=O)(=O)Nc1ccc(F)c(NC(=O)Nc2ncncc2-c2ccc(Cl)cc2)c1F [Example 25] | 288
15 | CCCS(=O)(=O)Nc1ccc(F)c(NC(=O)Nc2ncnc(NC)n2)c1F [Example 26, N-(2,4-Difluoro-3-(3-(4-(methylamino)-1,3,5-triazin-2-yl)ureido)phenyl)propane-1-sulfonamide] | 235

Next, values leading:

Row | IC50 [nM] | SMILES
16 | 28 | CCCS(=O)(=O)Nc1ccc(F)c(NC(=O)Nc2cc(NCC)ncn2)c1F [Example 1, Propane-1-sulfonic acid {3-[3-(6-ethylamino-pyrimidin-4-yl)-ureido]-2,4-difluoro-phenyl}-amide]
17 | 31.2 | CCCS(=O)(=O)Nc1ccc(F)c(NC(=O)Nc2cc(NC)ncn2)c1F [Example 3, N-(2,4-difluoro-3-(3-(6-(methylamino)pyrimidin-4-yl)ureido)phenyl)propane-1-sulfonamide]
18 | 19.8 | CCCS(=O)(=O)Nc1ccc(F)c(NC(=O)Nc2cc(NC)ncn2)c1Cl [Example 8, Propane-1-sulfonic acid {2-chloro-4-fluoro-3-[3-(6-methylamino-pyrimidin-4-yl)-ureido]-phenyl}-amide]
19 | 8.9 | CCCS(=O)(=O)Nc1ccc(Cl)c(NC(=O)Nc2cc(NC)ncn2)c1F [Example 9, N-4-Chloro-2-fluoro-3-(3-((6-(methylamino)pyrimidin-4-yl)ureido)phenyl)propane-1-sulfonamide]
20 | 19.2 | CCCS(=O)(=O)Nc1ccc(Cl)c(NC(=O)Nc2cc(NCc3ccccc3)ncn2)c1F [Example 10, N-(3-(3-(6-(Benzylamino)pyrimidin-4-yl)ureido)-4-chloro-2-fluorophenyl)propane-1-sulfonamide]
21 | 59.1 | CCCS(=O)(=O)Nc1ccc(F)c(NC(=O)N(C)c2cc(Nc3ccn(C)n3)ncn2)c1F [Example 12, Propane-1-sulfonic acid (2,4-difluoro-3-{3-methyl-3-[6-(1-methyl-1H-pyrazol-3-ylamino)-pyrimidin-4-yl]-ureido}-phenyl)-amide]
22 | 21.8 | CCCS(=O)(=O)Nc1ccc(F)c(NC(=O)N(C)c2cc(NC3CC3)ncn2)c1F [Example 13, N-(3-(3-(6-(cyclopropylamino)pyrimidin-4-yl)-3-methylureido)-2,4-difluorophenyl)propane-1-sulfonamide]
23 | 25.6 | CCCS(=O)(=O)Nc1ccc(F)c(NC(=O)N(C)c2cc(NCC)ncn2)c1F [Example 14, N-(3-(3-(6-(ethylamino)pyrimidin-4-yl)-3-methylureido)-2,4-difluorophenyl)propane-1-sulfonamide]
24 | 83.6 | CCCS(=O)(=O)Nc1ccc(F)c(NC(=O)N(C)c2cc(NC3CCC3)ncn2)c1F [Example 18, N-(3-(3-(6-(cyclobutylamino)pyrimidin-4-yl)-3-methylureido)-2,4-difluorophenyl)propane-1-sulfonamide]
25 | 33.4 | CCCS(=O)(=O)Nc1ccc(F)c(NC(=O)N(C)c2cc(NN)ncn2)c1F [Example 20, N-(2,4-difluoro-3-(3-(6-hydrazinylpyrimidin-4-yl)-3-methylureido)phenyl) propane-1-sulfonamide]
26 | 13.4 | CCCS(=O)(=O)Nc1ccc(F)c(NC(=O)Nc2ncnc(Nc3ccc(F)cc3)n2)c1F [Example 23, N-(2,4-Difluoro-3-(3-(4-(4-fluorophenylamino)-1,3,5-triazin-2-yl)ureido)phenyl)propane-1-sulfonamide]

Test system: basal ERK1/2 phosphorylation
Assay: Cellular ERK 1/2 phosphorylation assay in Malme-3M cells
Format: cell-based
Conditions: Homo sapiens, 1 hour incubation, pERK signal normalized to total ERK, read-out: IC50, inhibition of basal ERK1/2 phosphorylation
Procedure: Inhibition of basal ERK1/2 phosphorylation was determined by the following in vitro […], which comprises incubating cells with a compound of Formula II for 1 hour and quantifying the fluorescent pERK signal on fixed cells and normalizing to total ERK signal.
Materials and Methods: Malme-3M cells were obtained from ATCC and grown in RPMI-1640 supplemented with 10% fetal bovine serum. Cells were plated in 96-well plates at 24,000 cells/well and allowed to attach for 16-20 hours at 37° C., 5% CO2. The media was removed, and DMSO-diluted compounds were added in RPMI-1640 at a final concentration of 1% DMSO. The cells were incubated with the compounds for 1 hour at 37° C., 5% CO2. The cells were washed with PBS and fixed in 3.7% formaldehyde in PBS for 15 minutes. This was followed by washing in PBS/0.05% Tween20 and permeabilizing in −20° C. 100% MeOH for 15 minutes. Cells were washed in PBS/0.05% Tween20 then blocked in Odyssey blocking buffer (LI-COR Biosciences) for 1 hour. Antibodies to phosphorylated ERK (1:400, Cell Signaling #9106, monoclonal) and total ERK (1:400, Santa Cruz Biotechnology #sc-94, polyclonal) were added to the cells and incubated 16-20 hours at 4° C. […] Cells were then washed and analyzed for fluorescence at both wavelengths using the Odyssey Infrared Imaging System (LI-COR Biosciences). […]

Row | SMILES | IC50 [nM]
27 | CCCS(=O)(=O)Nc1ccc(F)c(NC(=O)Nc2cc(N)ncn2)c1F [Example 2, N-(3-(3-(6-aminopyrimidin-4-yl)ureido)-2,4-difluorophenyl)propane-1-sulfonamide] | ~438
28 | CCCS(=O)(=O)Nc1ccc(F)c(NC(=O)Nc2cc(NC)ncn2)c1Cl [Example 8, Propane-1-sulfonic acid {2-chloro-4-fluoro-3-[3-(6-methylamino-pyrimidin-4-yl)-ureido]-phenyl}-amide] | ~153
